Measured values from patent publication US20110021618A1, “METHODS OF TREATING FIBROTIC DISORDERS” (PALOMA PHARMACEUTICALS, INC., priority 2008, published 2011).

Key:
[1] = Half-life in the vitreous; type: in vivo
p-AKT(S473) = assay: AKT phosphorylation in human lung fibroblasts, Western Blot; type: cell-based; details: 30 μM
Description: Human lung fibroblasts are stimulated for one hour with either TGF-β1 or α-Thrombin in presence of 30 μM Palomid 529 to effect activation of signal transduction proteins. p-AKT(S473) and AKT levels are measured by Western Blot. Scanning software, Scion Image (Scion Corporation, Frederick, Md.), was used to digitize bands on Western Blot for numeric calculation of percent inhibition described in text.

SM-α-actin = assay: TGF-β1 stimulated SM-α-actin in human lung fibroblasts, Western Blot; type: cell-based; details: 30 μM; 30 minutes pre-treatment before TGF-β1
Source text: (§1) Transforming growth factor-beta one (TGF-β1) and alpha-Thrombin (α-Thrombin) are known to be involved in the pathogenesis of fibrotic disease. In an in vitro model of pulmonary fibrosis, TGF-β1 stimulates myofibroblast differentiation of human lung fibroblasts characterized by expression of contractile smooth muscle (SM)-specific proteins such as SM-alpha-actin (SM-α-actin). TGF-β1 also stimulates SM-α-actin expression in human lung fibroblasts which parallels a profound induction of serum response factor (SRF) expression and activity. Increased contractile gene expression with SM-α-actin as marker, increased SRF, increased connective tissue growth factor (CTGF) and increased matrix genes (e.g. fibronectin) are examples of effects observed during myofibroblast differentiation. Myofibroblast differentiation is induced by stimulation with TGF-β1 thereby increasing markers of differentiation.
(§2) Human lung fibroblasts were pre-treated with Palomid 529 for 30 minutes prior to TGF-β1 stimulation. Western Blot with antibodies against CTGF, SRG, SM-α-actin and β-actin is shown.

[2] = test system: detached retina (Müller cells); assay: Experimental retinal detachment, Müller cell proliferation and glial scar formation (Example 2); type: in vivo, rabbit; details: 600 micrograms intravitreally in PBS, versus PBS
Description: Methods: Experimental retinal detachments were made in the right eyes of pigmented rabbits. Six hundred micrograms of Palomid 529 in 50 microliters of PBS, or PBS alone was injected intravitreally on day 0, immediately after retinal detachment. Each rabbit received 10 micrograms of BrdU intravitreally on day 3. Animals were sacrificed on day 3 or 7, at which time the tissue was fixed in paraformaldahyde, embedded in agarose and sectioned at 100 microns. The sections were labeled with anti-BrdU, to detect dividing cells, and anti-vimentin, to identify Müller cells. Labeling was imaged on an Olympus Fluoview confocal microscope, and the resultant digital images were analyzed to determine the number of proliferating cells as well as the number and length of subretinal glial scars.

[3] = test system: detached retina (Müller cells, microglia and macrophages, photoreceptors); assay: Experimental retinal detachment, single intravitreal injection (Example 1); type: in vivo, rabbit
CTGF = assay: TGF-β1 stimulated CTGF in human lung fibroblasts, Western Blot; type: cell-based; details: 30 μM; 30 minutes pre-treatment before TGF-β1
Source text: as §1, §2

SRF = assay: TGF-β1 stimulated SRF in human lung fibroblasts, Western Blot; type: cell-based; details: 30 μM; 30 minutes pre-treatment before TGF-β1
Source text: as §1, §2

[4] = test system: epiretinal membrane formation; details: human patients; cited from earlier work
[5] = 7-day detachment, versus control

SMILES	expected half-life in the vitreous [1]	inhibition of basal level of AKT phosphorylation (p-AKT(S473); basal, stated with the TGF-β1 result)	decrease of AKT phosphorylation in the absence of α-Thrombin (basal level) (p-AKT(S473); basal, stated with the α-Thrombin result)	inhibition of phosphorylation of AKT stimulated by TGF-β1 (p-AKT(S473); one hour TGF-β1)	decrease of AKT phosphorylation in the presence of α-Thrombin (p-AKT(S473); one hour α-Thrombin)	inhibition of TGF-β1 stimulated increase of SM-α-actin (SM-α-actin)	number of BrdU labeled Müller cells per millimeter ([2]; 3 and 7 day time points)	number and size of sub-retinal scars ([2]; day 7)	average number of anti-BrdU labeled Müller cell nuclei ([3]; 3-day detachment, 600 μg intravitreally, vehicle control 10.79)	reduction of average number of subretinal scars [3, 5]	reduction of length of subretinal scars [3, 5]	average number of subretinal scars ([3]; 7-day detachment, 600 μg intravitreally, control 2.03)	total number of isolectin B4 labeled cells (microglia and macrophages) ([3]; 7-day detachment, 600 μg intravitreally, control 43.9)	average number of anti-BrdU labeled Müller cell nuclei ([3]; 7-day detachment, 600 μg intravitreally, vehicle control 9.83)	average thickness of the ONL ([3]; 7 days of detachment, 600 μg intravitreally, normal retina 34.45 μm, vehicle 19.40 μm)	average length of subretinal scars ([3]; day 7, 600 μg intravitreally, control 131.28 μm)	inhibition of TGF-β1 stimulated increase of CTGF (CTGF)	inhibition of TGF-β1 stimulated increase of SRF (SRF)	reducing epiretinal membrane formation [4]
COc1ccc(COc2cc3oc(=O)c4cc(C(C)O)ccc4c3cc2OC)cc1 (stereo not shown) [Palomid 529]	at least 3 months	13%	15%	27%	15%	65%	statistically significant decrease	significant decrease	1.19 /mm of retina	approximately 4 fold	more than 20 fold	0.39 /mm of retina	24.5 /mm retina	1.49 /mm of retina	27.21 μm	11.01 μm	18%	29%	–
O=c1[nH]cc(F)c(=O)[nH]1 [5-fluorouracil]	–	–	–	–	–	–	–	–	–	–	–	–	–	–	–	–	–	–	not effective
